Values quoted from earlier work in publication PMC12498288 (Frontiers in Immunology, 2025).

System: SARS-CoV-2
Parameters: method as in PMID 38319178
Settings: hospitalized COVID-19 patients with a similar CSS as in RESPIRE; cited from earlier work

Q: For `CC(C)C(=O)OC[C@H]1O[C@@H](n2ccc(NO)nc2=O)[C@H](O)[C@@H]1O` [molnupiravir], which viral load reduction is on record?
A: The viral load reduction was “no viral load reduction was observed”.
